The source of these data is US11242327B2, “Analgesic compounds” (RECURIUM IP HOLDINGS, LLC, priority 2017, dated 2022).

One series deals with Opiate μ (Homo sapiens, UniProt P35372). Nature of the series: NSAIDS and Opioid Receptor Test: Opiate μ. Conditions: 10 μM. The series is classed as binding. The procedure:
(§1) Compounds were screened as DMSO solutions at 10 μM, 100 μM, or 200 μM and values represent percent inhibition of control-specific binding. […] As NSAID and opioid mechanisms of action are precluded, a person of ordinary skill in the art understands that undesirable side effects associated with inhibition of COX receptors in NSAIDs and activation of opiate receptors in opioids can be avoided by compounds described herein. Furthermore, opioids are known to lose their analgesic potency after to continued administration. (See Benyamin, et al. “Opioid Complications and Side Effects” Pain Physician 11 (2008): S105-S120). As the data indicates compounds described herein have a different mechanism action compared to opioids, a person of ordinary skill in the art would appreciate that compounds described herein would not be expected to lose their analgesic potency like opioids after continued admininistration.

Series [1] has as its system male Sprague-Dawley rats. Kind of series: Formalin Paw Test, rat, oral. The format is in vivo. Conditions: 30 mg/kg; for Early Phase, seconds of paw licking: early/acute phase (0-10 minutes); for Late Phase, seconds of paw licking: late/tonic phase (10-35 minutes). A digest of the protocol:
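Paw licking recorded every 5 min for 35 min after formalin injection, in groups of 8 non-fasted males: Sprague-Dawley rats (200–225 g) dosed orally or ICR mice (23±3 g) dosed intraperitoneally. Scores are licking-time bins: A <70 s, B 70–165 s, C >165 s.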

The nature of series [2]: Bioavailability Test (rat pharmacokinetics). The series is classed as in vivo. Conditions: for F: PO 30 mg/kg vs IV 3 mg/kg; for AUC(0-inf) / clearance / half-life / Vd / Cmax / Tmax: male, Sprague-Dawley, in vivo; for Vd: read-out: Vdss. The procedure:
Oral bioavailability of compounds of Formulae (Ie), (Ih), (Ik), and (Ir), or a pharmaceutically acceptable salt of any of the foregoing, were evaluated in fasted male Sprague-Dawley (SD) rats weighing 200-225g. Compounds were dosed at 3 mg/kg (IV) and 30 mg/kg (PO). Unless otherwise noted, compounds were dissolved in 0.9% saline for IV dosing and 100% sterile water for PO dosing. Pharmacokinetic parameters were determined using Phoenix WinNonlin (v7.0). […]

In series [3] the test system is male Sprague-Dawley rats. Kind of series: Spinal Nerve Ligation (SNL) Neuropathic Pain Test. The series is classed as in vivo. Particulars: rat, oral; for 50% response threshold, 1 h: 1 h after administration; for 50% response threshold, 2 h: 2 h after administration; for 50% response threshold, 4 h: 4 h after administration. The procedure:
Neuropathy was induced in non-fasted male Sprague-Dawley rats weighing 75-100 g by surgically ligating the 4th and 5th lumbar spinal nerves (L4 and L5), a procedure also known as spinal nerve ligation (SNL). Animals were placed in individual acrylic chambers on a metal mesh surface and allowed to acclimate to their surroundings for a minimum of 15 minutes before testing. Mechanical sensitivity was assessed using 8 Semmes-Weinstein filaments (Stoelting©; Wood Dale, Ill., USA) with varying stiffness (0.4, 0.6, 1.0, 2.0, 4.0, 6.0, 8.0, and 15 g) according to an up-down method to determine 50% response thresholds. Each filament was presented perpendicular to the plantar surface with sufficient force to cause slight buckling against the paw and held for approximately 6 seconds or until a positive response is noted (paw sharply withdrawn). Testing was initiated with the 2.0 g filament. In the absence of a paw withdrawal response, the next stronger stimulus was presented. In the event of paw withdrawal, the next weaker stimulus was used. This process was repeated until 4 responses after the initial change in response (no response to positive response or positive response to no response) were obtained. […] The 50% response threshold was calculated using the formula: 50% response threshold (g)=(10^(Xf+kδ))/10,000;
Xf=value (in log units) of the final von Frey filament used;
k=tabular value for the pattern of positive/negative responses (See Chaplan, et al. “Quantitative Assessment of Tactile Allodynia in the Rat Paw” J. Neurosci. Meth. 53.1 (1994): 56-63);
[…] =mean difference (in log units) between stimuli.
The mean and standard error of the mean (SEM) were determined for each paw for each treatment group at each time point. Thresholds were determined prior to surgery and again 14 days later. After 14 days, test or control compounds were administered and thresholds were again determined 1, 2, and 4 hours after compound administration. Median response thresholds in compound-treated animals were compared to those in vehicle treated animals to determine anti-allodynic efficacy of test and control compounds. Test compounds were administered orally at concentrations of 10, 30 or 100 mg/kg and gabapentin was administered orally at a concentration of 100 mg/kg. The control group received the vehicle (sterile water). In Table 7, ‘A’ designates a 50% threshold of ≥8 grams, ‘B’ designates a 50% threshold of ≥6 and <8 grams, and ‘C’ designates a 50% threshold of <6 grams.
The results provided in Table 7 are for oral administration in rats.

For another series, the target named is Opiate κ (Homo sapiens, UniProt P41145). Nature of the series: NSAIDS and Opioid Receptor Test: Opiate κ. The format is binding. Particulars: 10 μM. The procedure: as §1
In the next series the target is Opiate δ2 (Homo sapiens, UniProt P41143). Kind of series: NSAIDS and Opioid Receptor Test: Opiate δ2. The series is classed as binding. Conditions: 10 μM. The procedure:
as §1

One may read the inhibition as the relative decrease from the control value, in per cent. In general, AUC(0-inf) refers to the area under the concentration-time curve extrapolated to infinity. By clearance is commonly meant the rate of elimination divided by the concentration. Lower therefore signals inefficient removal. Broadly, the half-life is the time needed for the level to fall by half in the phase considered. Higher therefore signals slow decline. One may read the Cmax as the peak of the concentration-time curve. What is called Tmax is the time from dosing to the highest level.

Chain of Opiate δ2 (P41143 whole entry): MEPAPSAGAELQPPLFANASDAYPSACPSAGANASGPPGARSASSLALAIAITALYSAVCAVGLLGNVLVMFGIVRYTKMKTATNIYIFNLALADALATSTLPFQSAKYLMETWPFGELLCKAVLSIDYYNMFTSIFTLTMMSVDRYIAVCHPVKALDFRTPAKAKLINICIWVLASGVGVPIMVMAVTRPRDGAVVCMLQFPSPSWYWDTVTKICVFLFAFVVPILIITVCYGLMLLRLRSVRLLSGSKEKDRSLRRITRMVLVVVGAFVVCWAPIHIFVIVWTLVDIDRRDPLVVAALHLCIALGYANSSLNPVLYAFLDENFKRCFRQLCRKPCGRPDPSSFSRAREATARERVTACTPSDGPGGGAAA
Chain of Opiate μ (P35372 whole entry): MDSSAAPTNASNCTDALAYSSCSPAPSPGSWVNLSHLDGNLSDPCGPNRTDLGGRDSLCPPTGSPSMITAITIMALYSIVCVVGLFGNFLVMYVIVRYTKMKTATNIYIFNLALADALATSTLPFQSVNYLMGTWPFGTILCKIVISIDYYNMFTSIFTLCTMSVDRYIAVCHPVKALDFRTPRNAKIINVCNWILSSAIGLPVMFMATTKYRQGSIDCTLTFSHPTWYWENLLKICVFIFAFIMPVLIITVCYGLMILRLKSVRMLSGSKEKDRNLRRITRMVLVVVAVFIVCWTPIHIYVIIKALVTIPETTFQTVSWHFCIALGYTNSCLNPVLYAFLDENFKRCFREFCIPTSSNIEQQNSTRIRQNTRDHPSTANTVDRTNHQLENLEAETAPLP
Chain of Opiate κ (P41145 whole entry): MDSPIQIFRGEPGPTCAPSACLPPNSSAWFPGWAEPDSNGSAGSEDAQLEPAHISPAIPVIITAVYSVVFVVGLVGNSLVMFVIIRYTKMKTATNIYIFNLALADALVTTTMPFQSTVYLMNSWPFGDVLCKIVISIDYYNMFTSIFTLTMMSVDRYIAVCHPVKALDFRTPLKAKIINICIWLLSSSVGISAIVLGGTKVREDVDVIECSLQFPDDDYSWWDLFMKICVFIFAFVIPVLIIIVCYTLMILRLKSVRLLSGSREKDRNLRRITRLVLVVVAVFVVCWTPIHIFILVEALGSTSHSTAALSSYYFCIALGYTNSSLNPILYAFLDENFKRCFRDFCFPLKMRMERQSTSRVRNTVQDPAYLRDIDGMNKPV

Turning to `Cl.NC12CC(c3nc(C(F)(F)F)cs3)(C1)C2` [Compound 1, 3-(4-(Trifluoromethyl)thiazol-2-yl)bicyclo[1.1.1]pentan-1-amine hydrochloride], at Opiate μ, the inhibition at 10 µM came to 11%. In the series with male Sprague-Dawley rats [1], the “Early Phase, seconds of paw licking” value was “A (<70 seconds of paw licking)”; the “Late Phase, seconds of paw licking” value was “B (>70 and <165 seconds of paw licking)”. Besides, the F in series [2] turned out to be 115%. Besides, in series [2] (IV 3 mg/kg, 0.9% saline), the AUC(0-inf) was 19.2 µM·h, the clearance is 11 mL/min/kg, the half-life is 3.1 h and the Vd was 1.4 L/kg. In series [2] (PO 30 mg/kg, sterile water), the AUC(0-inf) came to 277 µM·h, the concentration peaked (Cmax) at 49 µM, the Tmax amounted to 0.3 h and the half-life was 5.6 h. In addition, in the series on male Sprague-Dawley rats [3] (10 mg/kg), the “50% response threshold, 1 h” value is on record as “C (a 50% threshold of <6 grams)”; the “50% response threshold, 2 h” value is on record as “C (a 50% threshold of <6 grams)”; the “50% response threshold, 4 h” value was “C (a 50% threshold of <6 grams)”. Besides, in the series on male Sprague-Dawley rats [3] (30 mg/kg), the “50% response threshold, 1 h” value was “B (a 50% threshold of ≥6 and <8 grams)”; the “50% response threshold, 2 h” value is “B (a 50% threshold of ≥6 and <8 grams)”; the “50% response threshold, 4 h” value is “C (a 50% threshold of <6 grams)”. Further, in the series with male Sprague-Dawley rats [3] (100 mg/kg), the “50% response threshold, 1 h” value is on record as “A (a 50% threshold of ≥8 grams)”; the “50% response threshold, 2 h” value was “A (a 50% threshold of ≥8 grams)”; the “50% response threshold, 4 h” value is “A (a 50% threshold of ≥8 grams)”. On Opiate κ, the inhibition at 10 µM was -4%. Further, the inhibition at 10 µM against Opiate δ2 is 7%.
Turning to `Cc1sc(C23CC(N)(C2)C3)nc1C(F)(F)F.Cl` [Compound 2, 3-(5-Methyl-4-(trifluoromethyl)thiazol-2-yl)bicyclo[1.1.1]pentan-1-amine hydrochloride], the inhibition at 10 µM against Opiate μ was found to be 9%. Moreover, in the series on male Sprague-Dawley rats [1], the “Early Phase, seconds of paw licking” value is listed as “A (<70 seconds of paw licking)” and the “Late Phase, seconds of paw licking” value is reported as “A (<70 seconds of paw licking)”. This compound also registered a F in series [2] of 79%. Further, in series [2] (IV 3 mg/kg, 0.9% saline), the AUC(0-inf) was found to be 4 µM·h, the clearance amounted to 52 mL/min/kg, the half-life is 2.7 h and the Vd came out at 3.6 L/kg. For the same compound, in series [2] (PO 30 mg/kg, sterile water), the AUC(0-inf) is 29 µM·h, the peak level (Cmax) was 12 µM, the time of peak concentration (Tmax) stood at 1 h and the half-life is 2.4 h. In the series on male Sprague-Dawley rats [3] (10 mg/kg), the “50% response threshold, 1 h” value is recorded as “C (a 50% threshold of <6 grams)”; the “50% response threshold, 2 h” value is given as “C (a 50% threshold of <6 grams)”; the “50% response threshold, 4 h” value is on record as “C (a 50% threshold of <6 grams)”. Besides, in the series with male Sprague-Dawley rats [3] (30 mg/kg), the “50% response threshold, 1 h” value was “C (a 50% threshold of <6 grams)”; the “50% response threshold, 2 h” value was “C (a 50% threshold of <6 grams)”; the “50% response threshold, 4 h” value is given as “C (a 50% threshold of <6 grams)”. Further, in the series on male Sprague-Dawley rats [3] (100 mg/kg), the “50% response threshold, 1 h” value is listed as “A (a 50% threshold of ≥8 grams)”; the “50% response threshold, 2 h” value is listed as “A (a 50% threshold of ≥8 grams)”; the “50% response threshold, 4 h” value was “B (a 50% threshold of ≥6 and <8 grams)”. Further, the inhibition at 10 µM on Opiate κ was -9%. Besides, the inhibition at 10 µM against Opiate δ2 came to 10%.
